From US9204653B2, “5-fluoro pyrimidine derivatives” (DOW AGROSCIENCES LLC, priority 2008, dated 2015)
Where two headings read alike, the source gives them in different places.

System: Mycosphaerella graminicola; Anamorph: Septoria tritici; Bayer Code SEPTTR
Test: Leaf blotch of wheat, foliar fungicide treatment, one day protectant (1DP) or three day curative (3DC)
Type: in vivo, Septoria tritici on wheat plants (variety Yuma)
Settings: Zymoseptoria tritici; for pest or weed control at 50 ppm / pest or weed control at 200 ppm: % disease control rating
[1] = 24 h, one day protectant, 25 ppm, rating of percent disease control, read-out: SETTTR 1DP 25 ppm
[2] = 24 h, one day protectant, rating of percent disease control, read-out: SEPTTR 1DP 100 ppm
[3] = 72 h, three day curative, 25 ppm, rating of percent disease control, read-out: SEPTTR 3DC 25 ppm
[4] = 72 h, three day curative, rating of percent disease control, read-out: SEPTTR 3DC 100 ppm
[5] = 24 h, one day protectant (1DP), 25 ppm (first 1DP column), percent control rating, read-out: SETTTR 1DP 25 ppm
[6] = 24 h, one day protectant (1DP), 25 ppm as printed (second 1DP column), percent control rating, read-out: SETTTR 1DP 25 ppm
[7] = 72 h, three day curative (3DC), 25 ppm, percent control rating, read-out: SEPTTR 3DC 25 ppm
[8] = 72 h, three day curative (3DC), percent control rating, read-out: SEPTTR 3DC 100 ppm
[9] = 24 h, one day protectant (1DP), 25 ppm, percent disease control rating, read-out: SETTTR 1DP 25 ppm
[10] = 24 h, one day protectant (1DP), percent disease control rating, read-out: SEPTTR 1DP 100 ppm
[11] = 72 h, three day curative (3DC), 25 ppm, percent disease control rating, read-out: SEPTTR 3DC 25 ppm
[12] = 72 h, three day curative (3DC), percent disease control rating, read-out: SEPTTR 3DC 100 ppm
[13] = 24 h, one day protectant (1DP), 25 ppm, rating of percent disease control, read-out: SETTTR 1DP 25 ppm
[14] = 24 h, one day protectant (1DP), rating of percent disease control, read-out: SEPTTR 1DP 100 ppm
[15] = 72 h, three day curative (3DC), 25 ppm, rating of percent disease control, read-out: SEPTTR 3DC 25 ppm
[16] = 72 h, three day curative (3DC), rating of percent disease control, read-out: SEPTTR 3DC 100 ppm

**Q.** `CSc1ccc(COc2ncc(F)c(N)n2)cc1` [Compound 673] was tested. Which pest or weed control at 25 ppm [1] did it give?
**A.** The pest or weed control at 25 ppm was 76 to 100%.

**Q.** And the pest or weed control at 100 ppm [2]?
**A.** Its pest or weed control at 100 ppm is 76 to 100%.

**Q.** What about the pest or weed control at 25 ppm [3] of the same molecule?
**A.** Its pest or weed control at 25 ppm is 76 to 100%.

**Q.** And the pest or weed control at 100 ppm [4]?
**A.** The pest or weed control at 100 ppm was 76 to 100%.

**Q.** Which pest or weed control at 25 ppm [5] does the source give for `CCOC(=O)CNC(=O)Nc1nc(O)ncc1F` [Compound 976] here?
**A.** Its pest or weed control at 25 ppm is 0 to 25%.

**Q.** And the pest or weed control at 25 ppm [6]?
**A.** Its pest or weed control at 25 ppm is 0 to 25%.

**Q.** What about the pest or weed control at 25 ppm [7] of the same molecule?
**A.** The pest or weed control at 25 ppm was 0 to 25%.

**Q.** What about the pest or weed control at 100 ppm [8] of the same molecule?
**A.** The pest or weed control at 100 ppm was 0 to 25%.

**Q.** For `COc1cccc(COc2ncc(F)c(NNc3nc4ccccc4s3)n2)c1` [Compound 1046], which pest or weed control at 25 ppm [5] is on record?
**A.** Its pest or weed control at 25 ppm is 0 to 25%.

**Q.** And the pest or weed control at 25 ppm [6]?
**A.** Its pest or weed control at 25 ppm is 0 to 25%.

**Q.** What about the pest or weed control at 25 ppm [7] of the same molecule?
**A.** The pest or weed control at 25 ppm was 0 to 25%.

**Q.** And the pest or weed control at 100 ppm [8]?
**A.** Its pest or weed control at 100 ppm is 0 to 25%.

**Q.** Which results are given for `CCC(C)/C(C)=N/Nc1nc(OC)ncc1F` (stereo not shown) [Compound 1018]?
**A.** pest or weed control at 25 ppm [5]: 0 to 25%; pest or weed control at 25 ppm [6]: 0 to 25%; pest or weed control at 25 ppm [7]: 0 to 25%; pest or weed control at 100 ppm [8]: 0 to 25%

**Q.** What does the source list for `COc1ncc(F)c(NNc2ccccc2OC)n1` [Compound 1052]?
**A.** pest or weed control at 25 ppm [5]: 0 to 25%; pest or weed control at 25 ppm [6]: 0 to 25%; pest or weed control at 25 ppm [7]: 0 to 25%; pest or weed control at 100 ppm [8]: 0 to 25%

**Q.** Which pest or weed control at 50 ppm (24 h, one day protectant) does the source give for `Cc1ccc(CNc2nc(OCc3ccco3)ncc2F)cc1` [Compound 914] here?
**A.** The pest or weed control at 50 ppm was 0 to 25%.

**Q.** And the pest or weed control at 200 ppm (24 h, one day protectant)?
**A.** The pest or weed control at 200 ppm was 76 to 100%.

**Q.** `Cn1ccc(COc2ncc(F)c(NC(=O)Nc3ccccc3F)n2)n1` [Compound 81] was tested. Which pest or weed control at 25 ppm [9] did it give?
**A.** Its pest or weed control at 25 ppm is 0 to 25%.

**Q.** What about the pest or weed control at 100 ppm [10] of the same molecule?
**A.** Its pest or weed control at 100 ppm is 0 to 25%.

**Q.** And the pest or weed control at 25 ppm [11]?
**A.** Its pest or weed control at 25 ppm is 0 to 25%.

**Q.** And the pest or weed control at 100 ppm [12]?
**A.** The pest or weed control at 100 ppm was 0 to 25%.

**Q.** For `Cc1ccc(COc2ncc(F)c(N(N)c3ccccc3)n2)cc1` [Compound 102], which pest or weed control at 25 ppm [9] is on record?
**A.** Its pest or weed control at 25 ppm is 0 to 25%.

**Q.** What about the pest or weed control at 100 ppm [10] of the same molecule?
**A.** The pest or weed control at 100 ppm was 0 to 25%.

**Q.** What about the pest or weed control at 25 ppm [11] of the same molecule?
**A.** The pest or weed control at 25 ppm was 0 to 25%.

**Q.** And the pest or weed control at 100 ppm [12]?
**A.** The pest or weed control at 100 ppm was 26 to 50%.

**Q.** With `Nc1nc(OCc2ccoc2)ncc1F` [Compound 392] as the molecule, how does the pest or weed control at 25 ppm [13] read?
**A.** The pest or weed control at 25 ppm was 76 to 100%.

**Q.** And the pest or weed control at 100 ppm [14]?
**A.** The pest or weed control at 100 ppm was 76 to 100%.

**Q.** What about the pest or weed control at 25 ppm [15] of the same molecule?
**A.** The pest or weed control at 25 ppm was 76 to 100%.

**Q.** And the pest or weed control at 100 ppm [16]?
**A.** The pest or weed control at 100 ppm was 76 to 100%.

**Q.** What does the source list for `N#Cc1cccc(COc2ncc(F)c(NC(=O)OCc3ccccc3)n2)c1` [Compound 690]?
**A.** pest or weed control at 25 ppm [1]: 51 to 75%; pest or weed control at 100 ppm [2]: 76 to 100%; pest or weed control at 25 ppm [3]: 76 to 100%; pest or weed control at 100 ppm [4]: 76 to 100%

**Q.** What does the source list for `Fc1cnc(OCc2ccc(Cl)cc2)nc1NCc1cccs1` [Compound 808]?
**A.** pest or weed control at 50 ppm (24 h, one day protectant): 76 to 100%; pest or weed control at 200 ppm (24 h, one day protectant): 76 to 100%

**Q.** How did the pest or weed control at 25 ppm [5] turn out when `Cc1ccc(COc2ncc(F)c(/N=N/c3ccccc3)n2)cc1` [Compound 992] was run?
**A.** Its pest or weed control at 25 ppm is 0 to 25%.

**Q.** What about the pest or weed control at 25 ppm [6] of the same molecule?
**A.** Its pest or weed control at 25 ppm is 0 to 25%.

**Q.** What about the pest or weed control at 25 ppm [7] of the same molecule?
**A.** Its pest or weed control at 25 ppm is 0 to 25%.

**Q.** And the pest or weed control at 100 ppm [8]?
**A.** The pest or weed control at 100 ppm was 26 to 50%.

**Q.** How did the pest or weed control at 25 ppm [13] turn out when `O=[N+]([O-])c1ccccc1SNc1nc(OCc2ccc(F)c(C(F)(F)F)c2)ncc1F` [Compound 527] was run?
**A.** Its pest or weed control at 25 ppm is 51 to 75%.

**Q.** And the pest or weed control at 100 ppm [14]?
**A.** Its pest or weed control at 100 ppm is 76 to 100%.

**Q.** What about the pest or weed control at 25 ppm [15] of the same molecule?
**A.** Its pest or weed control at 25 ppm is 0 to 25%.

**Q.** And the pest or weed control at 100 ppm [16]?
**A.** Its pest or weed control at 100 ppm is 0 to 25%.

**Q.** Which results are given for `Nc1nc(OCc2cccc(O)c2)ncc1F` [Compound 423]?
**A.** pest or weed control at 25 ppm [13]: 0 to 25%; pest or weed control at 100 ppm [14]: 0 to 25%; pest or weed control at 25 ppm [15]: 0 to 25%; pest or weed control at 100 ppm [16]: 0 to 25%

**Q.** For `CN(C)/C=N/c1nc(OC(=O)Oc2cccc(C(F)(F)F)c2)ncc1F` [Compound 425], which pest or weed control at 25 ppm [13] is on record?
**A.** Its pest or weed control at 25 ppm is 76 to 100%.

**Q.** What about the pest or weed control at 100 ppm [14] of the same molecule?
**A.** Its pest or weed control at 100 ppm is 76 to 100%.

**Q.** What about the pest or weed control at 25 ppm [15] of the same molecule?
**A.** Its pest or weed control at 25 ppm is 76 to 100%.

**Q.** What about the pest or weed control at 100 ppm [16] of the same molecule?
**A.** Its pest or weed control at 100 ppm is 76 to 100%.

**Q.** `CC#CCOc1ncc(F)c(NC(=O)Nc2ccsc2)n1` [Compound 729] was tested. Which pest or weed control at 25 ppm [1] did it give?
**A.** Its pest or weed control at 25 ppm is 51 to 75%.

**Q.** And the pest or weed control at 100 ppm [2]?
**A.** The pest or weed control at 100 ppm was 26 to 50%.

**Q.** And the pest or weed control at 25 ppm [3]?
**A.** Its pest or weed control at 25 ppm is 51 to 75%.

**Q.** And the pest or weed control at 100 ppm [4]?
**A.** Its pest or weed control at 100 ppm is 51 to 75%.

**Q.** How did the pest or weed control at 25 ppm [5] turn out when `O=C(Nc1ccccc1Cl)Nc1nc(O)ncc1F` [Compound 966] was run?
**A.** The pest or weed control at 25 ppm was 26 to 50%.

**Q.** And the pest or weed control at 25 ppm [6]?
**A.** Its pest or weed control at 25 ppm is 51 to 75%.

**Q.** And the pest or weed control at 25 ppm [7]?
**A.** The pest or weed control at 25 ppm was 51 to 75%.

**Q.** And the pest or weed control at 100 ppm [8]?
**A.** The pest or weed control at 100 ppm was 51 to 75%.

**Q.** Which pest or weed control at 25 ppm [1] does the source give for `Fc1ccccc1NC(=S)Nc1nc(OCc2cccs2)ncc1F` [Compound 711] here?
**A.** Its pest or weed control at 25 ppm is 51 to 75%.

**Q.** What about the pest or weed control at 100 ppm [2] of the same molecule?
**A.** The pest or weed control at 100 ppm was 76 to 100%.

**Q.** And the pest or weed control at 25 ppm [3]?
**A.** The pest or weed control at 25 ppm was 26 to 50%.

**Q.** What about the pest or weed control at 100 ppm [4] of the same molecule?
**A.** Its pest or weed control at 100 ppm is 76 to 100%.

**Q.** Which results are given for `COc1ccc(/C=N/Nc2nc(O)ncc2F)cc1` [Compound 960, (E)-5-Fluoro-4-(2-(4-methoxybenzylidene)hydrazinyl)pyrimidin-2(1H)-one]?
**A.** pest or weed control at 25 ppm [5]: 0 to 25%; pest or weed control at 25 ppm [6]: 0 to 25%; pest or weed control at 25 ppm [7]: 0 to 25%; pest or weed control at 100 ppm [8]: 0 to 25%

**Q.** Which pest or weed control at 50 ppm (24 h, one day protectant) does the source give for `Fc1cnc(OCc2cccs2)nc1NCc1cccs1` [Compound 831] here?
**A.** The pest or weed control at 50 ppm was 51 to 75%.

**Q.** What about the pest or weed control at 200 ppm (24 h, one day protectant) of the same molecule?
**A.** Its pest or weed control at 200 ppm is 76 to 100%.

**Q.** Which results are given for `Cc1ccc(CNc2nc(OCc3cccs3)ncc2F)cc1` [Compound 922]?
**A.** pest or weed control at 50 ppm (24 h, one day protectant): 51 to 75%; pest or weed control at 200 ppm (24 h, one day protectant): 26 to 50%
